According to paper PMC10281321, “Discovery of an effective anti-inflammatory agent for inhibiting the activation of NF-κB” (Journal of Enzyme Inhibition and Medicinal Chemistry, 2023):

Assays:
Type in all cases: cell-based
[1] = test system: LPS-stimulated RAW264.7 cells; test: NO release inhibition in LPS-stimulated RAW264.7 cells (Griess reagent); details: for IC50: Mus musculus, LPS-stimulated RAW264.7 cells, Griess Reagent; for anti-inflammatory activity (in words): SAR summary covering NO release and NF-κB reporter inhibition
Procedure: After incubated for 24 hours, cells were treated with tested compounds for different
concentrations(3.125,6.25,12.5,25 and 50μM) for 1 h, and then treated with 1 μg/mL LPS
for further 24 h. The supernatants were collected and NO level was measured using
Griess reagent (Beyotime, China). […]

[2] = test system: NF-κB; test: NF-κB transcriptional activity dual-luciferase reporter assay, TNF-α stimulated; details: Homo sapiens, HEK-293T, HEK293T cells transfected with NF-κB reporter plasmid, stimulated by TNF-α
Procedure: 4.5. NF-κB transcriptional activity assay
HEK293T cells were seeded into 96 well plate at a density of 1×10^5 cells per well. After incubated for 24 hours, cells were transfected with NF-κB reporter plasmid at 100 ng/well using lip2000.Six hours later, the medium was replaced by fresh medium containing tested compounds with different concentrations. Then incubated for another hour, TNF-α was added for a final concentration at 10 ng/mL.12 hours later, the cell lysate was collected and the RLU was measured by microplate reader. […]

[3] = Cytotoxicity by MTT assay

Compound	IC50 [1] [µM]	IC50 [2] [µM]	IC50 [3] [µM]	anti-inflammatory activity (in words) [1]	cytotoxicity (in words) [3]
CCc1ccc(-c2cnc(N)c(C(=O)Nc3ccccc3N)c2)cc1 [Compound 12]	0.9 ± 0.5	0.571 ± 0.0093	4.7 ± 1	–	–
CCc1ccc(-c2cncc(C(=O)Nc3ccc(NC(C)=O)cc3)c2)cc1 [Compound 25]	25.4 ± 3.1	1.33 ± 0.0163	> 25	–	–
COc1ccc(-c2cnc(N)c(C(=O)Nc3ccc(NC(C)=O)cc3)c2)cc1 [Compound 31]	> 50	> 2	> 50	–	–
CCc1ccc(-c2cnc(N)c(C(=O)Nc3ccc(C(C)C)cc3)c2)cc1 [Compound 21]	> 50	> 2	> 25	–	–
CC(=O)Nc1ccc(NC(=O)c2cc(-c3cccc(C#N)c3)cnc2N)cc1 [Compound 47]	28.9 ± 2.1	> 2	> 50	–	–
COc1ccc(-c2cnc(N)c(C(=O)Nc3ccc(NC(C)=O)cc3)c2)c(F)c1 [Compound 52]	> 50	1.42 ± 0.0247	> 50	–	–
CCc1ccc(-c2cnc(N)c(C(=O)Nc3ccc(OC)cc3)c2)cc1 [Compound 20]	22 ± 0.8	> 2	> 25	–	–
CCc1ccc(-c2cnc(N)c(C(=O)Nc3ccc(OC(F)(F)F)cc3)c2)cc1 [Compound 18]	> 50	> 2	> 25	loss of anti-inflammatory activity	–
CC(=O)Nc1ccc(NC(=O)c2cc(-c3ccc(S(C)(=O)=O)cc3)cnc2N)cc1 [Compound 30]	17.8 ± 2.7	1.04 ± 0.0175	> 50	–	–
CCc1ccc(-c2ccnc(C(=O)Nc3ccc(NC(C)=O)cc3)c2)cc1 [Compound 26]	19.5 ± 3.2	1.96 ± 0.0535	> 25	–	–
CC(=O)Nc1ccc(NC(=O)c2cc(-c3cccc(C)c3)cnc2N)cc1 [Compound 29]	> 50	> 2	> 50	anti-inflammatory activity decreased significantly	–
CCc1ccc(-c2cnc(N)c(C(=O)Nc3ccc(Cl)cc3)c2)cc1 [Compound 17]	> 50	> 2	> 25	–	–
CCc1ccc(-c2cc(C(=O)Nc3ccc(NC(C)=O)cc3)ccn2)cc1 [Compound 24]	14.1 ± 1.7	0.763 ± 0.0151	> 25	–	–
CC(=O)Nc1ccc(NC(=O)c2cc(-c3ccccc3O)cnc2N)cc1 [Compound 45]	> 50	> 2	> 50	–	–
COc1cccc(-c2cnc(N)c(C(=O)Nc3ccc(NC(C)=O)cc3)c2)c1 [Compound 32]	> 50	> 2	> 50	–	–
CCc1ccc(-c2cnc(N)c(C(=O)Nc3ccccc3C)c2)cc1 [Compound 9]	30.2 ± 4	> 2	> 25	–	–
CC(=O)Nc1ccc(NC(=O)c2cc(-c3cccc(Cl)c3)cnc2N)cc1 [Compound 36]	> 50	> 2	> 50	–	–
CC(=O)Nc1ccc(NC(=O)c2cc(-c3cccc(F)c3)cnc2N)cc1 [Compound 39]	> 50	> 2	> 50	–	–
CCc1ccc(-c2cnc(N)c(C(=O)Nc3ccc(NC(C)=O)cc3)c2)cc1 [Compound 13]	10.2 ± 5.4	0.7139 ± 0.0042	> 25	–	cytotoxicity is reduced
CCc1ccc(-c2cnc(N)c(C(=O)Nc3ccc(C)cc3)c2)cc1 [Compound 7]	26.7 ± 3.2	> 2	> 25	–	–
CC(=O)Nc1ccc(NC(=O)c2cc(-c3ccc(F)c(C)c3)cnc2N)cc1 [Compound 50]	8.6 ± 1.9	0.577 ± 0.0216	> 50	superior anti-inflammatory activity	–
CC(=O)Nc1ccc(NC(=O)c2cc(-c3ccccc3Cl)cnc2N)cc1 [Compound 37]	> 50	> 2	> 50	–	–
CCc1ccc(-c2cnc(N)c(C(=O)Nc3ccc(F)cc3)c2)cc1 [Compound 16]	> 50	> 2	> 25	–	–
